{"source": "ChEMBL document CHEMBL2157933", "about": "“The synthesis and antituberculosis activity of 5'-nor carbocyclic uracil derivatives” (Bioorg Med Chem, 2012)", "key": {"[1]": {"system": "Mycobacterium tuberculosis", "assay": "Antibacterial activity against Mycobacterium tuberculosis H37Rv under anaerobic condition assessed as growth inhibition at 20 ug/ml after 2 to 3 days by BACTEC method", "type": "functional, organism-based"}, "[2]": {"system": "Mycobacterium tuberculosis", "assay": "Antibacterial activity against Mycobacterium tuberculosis H37Rv assessed as growth inhibition at 40 ug/ml by BACTEC method", "type": "functional", "settings": "read-out: GI"}, "[3]": {"system": "Mycobacterium tuberculosis", "assay": "Antibacterial activity against Mycobacterium tuberculosis H37Rv by BACTEC method", "type": "functional"}, "[4]": {"assay": "(§1) Cytotoxicity against african green monkey Vero cells after 72 hrs by MTT assay", "type": "cell-based", "settings": "chlorocebus sabaeus, Vero cells"}, "[5]": {"system": "Mycobacterium tuberculosis", "assay": "Antibacterial activity against Mycobacterium tuberculosis H37Rv under anaerobic condition by BACTEC method", "type": "functional"}, "[6]": {"system": "Mycobacterium tuberculosis", "assay": "Antibacterial activity against Mycobacterium tuberculosis H37Rv under anaerobic condition assessed as growth inhibition at 5 ug/ml by BACTEC method", "type": "functional"}, "[7]": {"system": "Mycobacterium tuberculosis", "assay": "Antibacterial activity against Mycobacterium tuberculosis H37Rv under anaerobic condition assessed as growth inhibition at 2 ug/ml by BACTEC method", "type": "functional", "settings": "read-out: GI"}, "[8]": {"system": "Mycobacterium tuberculosis", "assay": "Antibacterial activity against Mycobacterium tuberculosis H37Rv under anaerobic condition assessed as growth inhibition at 0.1 ug/ml by BACTEC method", "type": "functional", "settings": "read-out: GI"}, "[9]": {"system": "Mycobacterium tuberculosis", "assay": "Antibacterial activity against Mycobacterium tuberculosis H37Rv assessed as growth inhibition at 20 to 40 ug/ml by BACTEC method", "type": "functional"}, "[10]": {"system": "Mycobacterium tuberculosis", "assay": "Antibacterial activity against Mycobacterium tuberculosis H37Rv under anaerobic condition assessed as growth inhibition at 1 ug/ml by BACTEC method", "type": "functional", "settings": "read-out: GI"}, "[11]": {"system": "Mycobacterium tuberculosis", "assay": "Antibacterial activity against Mycobacterium tuberculosis H37Rv assessed as growth inhibition at 1 ug/ml by BACTEC method", "type": "functional", "settings": "read-out: GI"}, "[12]": {"system": "Mycobacterium tuberculosis", "assay": "Antibacterial activity against Mycobacterium tuberculosis H37Rv under anaerobic condition assessed as growth inhibition at 100 ug/ml by BACTEC method", "type": "functional", "settings": "read-out: GI"}, "[13]": {"system": "Mycobacterium tuberculosis", "assay": "Antibacterial activity against Mycobacterium tuberculosis H37Rv assessed as growth inhibition at 20 ug/ml by BACTEC method", "type": "functional", "settings": "read-out: GI"}, "[14]": {"system": "Mycobacterium tuberculosis", "assay": "Antibacterial activity against Mycobacterium tuberculosis H37Rv under anaerobic condition assessed as growth inhibition at 10 ug/ml by BACTEC method", "type": "functional", "settings": "read-out: GI"}, "Vero": {"system": "Vero", "assay": "as §1", "type": "cell-based", "settings": "chlorocebus sabaeus, vero, 72 h"}, "[15]": {"system": "Mycobacterium tuberculosis", "assay": "Antibacterial activity against Mycobacterium tuberculosis H37Rv assessed as growth inhibition at 10 ug/ml by BACTEC method", "type": "functional", "settings": "read-out: GI"}, "[16]": {"system": "Mycobacterium tuberculosis", "assay": "Antibacterial activity against Mycobacterium tuberculosis H37Rv under anaerobic condition assessed as growth inhibition at 20 ug/ml by BACTEC method", "type": "functional", "settings": "read-out: GI"}, "[17]": {"system": "Mycobacterium tuberculosis", "assay": "Antibacterial activity against Mycobacterium tuberculosis H37Rv under anaerobic condition assessed as growth inhibition at 10 to 20 ug/ml by BACTEC method", "type": "functional"}, "[18]": {"settings": "Mycobacterium tuberculosis, H37Rv, read-out: MIC99"}}, "note": "Calls of active or inactive are those of the source. No cut-off for these calls is given here.", "data": [{"smiles": "Cc1cc(=O)[nH]c(=O)n1C1C=CC(O)C1", "note": "(racemic)", "values": [{"measurement": "growth inhibition (GI)", "setting": "[1]", "value": "inactive"}, {"measurement": "inhibition of growth at 40 µg/mL", "setting": "[2]", "value": 100, "unit": "%"}, {"measurement": "MIC99", "setting": "[3]", "value": 40, "unit": "µg/mL"}, {"measurement": "CC50 at 72 h", "setting": "[4]", "value": "> 200", "unit": "µg/mL"}]}, {"smiles": "CCCCCCCCC#Cc1cn(C2C=CC(O)C2)c(=O)[nH]c1=O", "note": "(racemic)", "values": [{"measurement": "growth inhibition (GI)", "setting": "[1]", "value": "inactive"}, {"measurement": "inhibition of growth at 40 µg/mL", "setting": "[2]", "value": 100, "unit": "%"}, {"measurement": "MIC99", "setting": "[3]", "value": 40, "unit": "µg/mL"}, {"measurement": "CC50 at 72 h", "setting": "[4]", "value": "> 125", "unit": "µg/mL"}]}, {"smiles": "CC[C@@H](CO)NCCN[C@@H](CC)CO", "note": "[ETHAMBUTOL]", "values": [{"measurement": "MIC99", "setting": "[5]; [18]", "value": 5, "unit": "µg/mL"}, {"measurement": "inhibition of growth at 5 µg/mL", "setting": "[6]; Mycobacterium tuberculosis, H37Rv, read-out: GI", "value": 100, "unit": "%"}]}, {"smiles": "CC1COc2c(N3CCN(C)CC3)c(F)cc3c(=O)c(C(=O)O)cn1c23", "note": "(stereo not given) [OFLOXACIN]", "values": [{"measurement": "MIC99", "setting": "[5]; [18]", "value": 2, "unit": "µg/mL"}, {"measurement": "inhibition of growth at 2 µg/mL", "setting": "[7]", "value": 100, "unit": "%"}]}, {"smiles": "CN[C@@H]1[C@H](O[C@H]2[C@H](O[C@H]3[C@H](O)[C@@H](O)[C@H](N=C(N)N)[C@@H](O)[C@@H]3N=C(N)N)O[C@@H](C)[C@]2(O)C=O)O[C@@H](CO)[C@H](O)[C@H]1O", "note": "[STREPTOMYCIN]", "values": [{"measurement": "MIC99", "setting": "[5]; [18]", "value": 0.1, "unit": "µg/mL"}, {"measurement": "inhibition of growth at 0.1 µg/mL", "setting": "[8]", "value": 100, "unit": "%"}]}, {"smiles": "CCCCCCCCCCC#Cc1cn(C2C=CC(O)C2)c(=O)[nH]c1=O", "note": "(racemic)", "values": [{"measurement": "MIC99", "setting": "[3]", "value": 20, "unit": "µg/mL"}, {"measurement": "CC50 at 72 h", "setting": "[4]", "value": "> 125", "unit": "µg/mL"}, {"measurement": "growth inhibition (GI)", "setting": "[9]", "value": 99, "unit": "%"}]}, {"smiles": "CO[C@H]1/C=C/O[C@@]2(C)Oc3c(C)c(O)c4c(O)c(c(/C=N/N5CCN(C)CC5)c(O)c4c3C2=O)NC(=O)/C(C)=C\\C=C\\[C@H](C)[C@H](O)[C@@H](C)[C@@H](O)[C@@H](C)[C@H](OC(C)=O)[C@@H]1C", "note": "[RIFAMPIN]", "values": [{"measurement": "MIC99", "setting": "[3]", "value": 1, "unit": "µg/mL"}, {"measurement": "CC50 at 72 h", "setting": "[4]", "value": "> 500", "unit": "µg/mL"}, {"measurement": "MIC99", "setting": "[5]; [18]", "value": 1, "unit": "µg/mL"}, {"measurement": "inhibition of growth at 1 µg/mL", "setting": "[10]", "value": 100, "unit": "%"}, {"measurement": "inhibition of growth at 1 µg/mL", "setting": "[11]", "value": 100, "unit": "%"}]}, {"smiles": "NC(=O)c1cnccn1", "note": "[PYRAZINAMIDE]", "values": [{"measurement": "MIC99", "setting": "[5]; [18]", "value": 100, "unit": "µg/mL"}, {"measurement": "inhibition of growth at 100 µg/mL", "setting": "[12]", "value": 100, "unit": "%"}]}, {"smiles": "O=c1[nH]c(=O)n(C2C=CC(O)C2)cc1I", "note": "(racemic)", "values": [{"measurement": "inhibition of growth at 40 µg/mL", "setting": "[2]", "value": 100, "unit": "%"}, {"measurement": "MIC99", "setting": "[3]", "value": 20, "unit": "µg/mL"}, {"measurement": "CC50 at 72 h", "setting": "[4]", "value": "> 200", "unit": "µg/mL"}, {"measurement": "inhibition of growth at 20 µg/mL", "setting": "[13]", "value": 99, "unit": "%"}]}, {"smiles": "CCCCCCCCCCCCC#Cc1cn(C2C=CC(O)C2)c(=O)[nH]c1=O", "note": "(stereo in doubt; (+)6)", "values": [{"measurement": "MIC99", "setting": "[5]", "value": 10, "unit": "µg/mL"}, {"measurement": "growth inhibition (GI)", "setting": "[6]", "value": 25, "unit": "%"}]}, {"smiles": "CCCCCCCCCCCCC#Cc1cn(C2C=CC(O)C2)c(=O)[nH]c1=O", "note": "(racemic)", "values": [{"measurement": "inhibition of growth at 10 µg/mL", "setting": "[14]", "value": 99, "unit": "%"}, {"measurement": "MIC99", "setting": "[3]", "value": 10, "unit": "µg/mL"}, {"measurement": "CC50", "setting": "Vero", "value": 125, "unit": "µg/mL"}, {"measurement": "growth inhibition (GI)", "setting": "[9]", "value": 100, "unit": "%"}, {"measurement": "inhibition of growth at 10 µg/mL", "setting": "[15]", "value": 99, "unit": "%"}, {"measurement": "inhibition of growth at 20 µg/mL", "setting": "[16]", "value": 100, "unit": "%"}]}, {"smiles": "CCCCCCCCCCCCC#Cc1cn(C2C=CC(O)C2)c(=O)[nH]c1=O", "note": "(single isomer, unassigned; (-))", "values": [{"measurement": "CC50 at 72 h", "setting": "[4]", "value": "> 100", "unit": "µg/mL"}, {"measurement": "MIC99", "setting": "[5]; [18]", "value": 5, "unit": "µg/mL"}, {"measurement": "growth inhibition (GI)", "setting": "[17]", "value": 100, "unit": "%"}, {"measurement": "growth inhibition (GI)", "setting": "[6]", "value": 99, "unit": "%"}]}, {"smiles": "NNC(=O)c1ccncc1", "note": "[ISONIAZID]", "values": [{"measurement": "MIC99", "setting": "[5]; [18]", "value": 0.1, "unit": "µg/mL"}, {"measurement": "inhibition of growth at 0.1 µg/mL", "setting": "[8]", "value": 100, "unit": "%"}]}, {"smiles": "O=c1ccn(C2C=CC(O)C2)c(=O)[nH]1", "note": "(racemic)", "values": [{"measurement": "inhibition of growth at 40 µg/mL", "setting": "[2]", "value": 75, "unit": "%"}, {"measurement": "MIC99", "setting": "[3]", "value": "> 40", "unit": "µg/mL"}, {"measurement": "CC50 at 72 h", "setting": "[4]", "value": "> 200", "unit": "µg/mL"}]}]}
